Assay results published in publication PMC12947280, “An Antifungal with a Novel Mechanism of Action Discovered via Resistance Gene-Guided Genome Mining” (ACS Central Science, 2026).

Assays:
[1] = target: T1, S. cerevisiae ALS wild type (Saccharomyces cerevisiae, UniProt P07342); test: ALS biochemical assay (ScALS), wild type
T1 construct: made in house; host or cells: E. coli BL21 (DE3), pET28a-ScILV2
Procedure: (§1) ALS biochemical assay (ScALS)
(§2) Saccharomyces cerevisiae acetohydroxyacid synthase (ScALS) lacking the N-terminal […]
(§3) Escherichia coli as an N-terminally His6-tagged protein. Assays (50 µL final volume) contained […]
(§4) adenine dinucleotide, 10 mM MgCl2, 1 mM DTT, 1% DMSO (± inhibitor) in 500 mM K2HPO4 buffer at pH 7.5. Following a 30 min pre-incubation of the enzyme and inhibitor in the reaction mixture at room temperature, reactions were initiated with the addition of pyruvate. ScALS assays were carried out at 30 °C for 60 min. The reaction was quenched with the addition of 5 µL of 10% H2SO4 (v/v in deionized water). Reactions were incubated at 60 °C at 800 rpm in an […]
(§5) to acetoin. Subsequently, the concentration of acetoin was determined by the addition of 7.5 µL 6 M NaOH, 25 µL 0.5% creatine (w/v in deionized water), and 25 µL 4% 1-naphthol (w/v in 2.5 M NaOH). This mixture was incubated at 60 °C at 800 rpm in an incubating microplate shaker for […]
(§6) 40 µL of this reaction mixture was transferred to a half area UV-star 96-well plate (Grenier) and the absorbance at 525 nm was measured on a Spark multimode plate reader (Tecan). The percent inhibition was calculated by the comparison of the signal to DMSO (0% […]
(§7) IC50 values were calculated from the dose response curves using Prism 9 (four parameter, variable slope). […]
(§8) Expression and purification of ScALS
(§9) S. cerevisiae ILV2 (the gene or ScALS) lacking the N-terminal mitochondrial-localization tag

S. cerevisiae ALS P192S = target: T2, S. cerevisiae ALS P192S (Saccharomyces cerevisiae, UniProt P07342, P192S); test: biochemical; format: biochemical
T2 construct: His6 (followed by a TEV protease site, pET28a) (N); made in house; host or cells: E. coli (inferred from the ScALS method)
Procedure: as §1, §2, §3, §4, §5, §6, §7, §8, §9

C. albicans ALS = C. albicans ALS (Candida albicans, UniProt A0A1D8PJF9); test: ALS biochemical assay (CaALS)
Plasma stability, mouse = format: in vitro ADME; conditions: read-out: Plasma t1/2 Mouse
Plasma stability, human = format: in vitro ADME; conditions: read-out: Plasma t1/2 Human
[2] = Liver microsome stability, mouse; format: in vitro ADME; conditions: mouse liver microsomes; read-out: Liver microsome t1/2 Mouse
[3] = Liver microsome stability, human; format: in vitro ADME; conditions: human liver microsomes; read-out: Liver microsome t1/2 Human
S. cerevisiae ALS = target: T3, S. cerevisiae ALS (Saccharomyces cerevisiae, UniProt P07342); test: FAD cofactor reoxidation upon incubation with ALS; format: biochemical; conditions: in contrast to accumulative inhibitors 2 and 3
T3 construct: made in house; host or cells: E. coli BL21 (DE3), pET28a-ScILV2

AfALS = test: Intact protein mass spectrometry; format: binding, Aspergillus fumigatus; conditions: 10 μM, 30 min
Excerpt: We next characterized the structural basis for binding of 1 to ALS. Given the strained structure and the observed tight binding kinetics, we hypothesized that 1 may be binding covalently. Analysis of ALS from both AfALS and ScALS by intact protein mass spectrometry yielded traces with multiple proteoforms for both proteins. […] Limited proteolysis followed by peptide mapping localized the covalent attachment to the 239[…]258 peptide of ScALS with Lys251 and Asp252 (equivalent to Lys310 and Asp311 in AfALS) serving as the most likely attachment sites (Figure S7).

physchem = conditions: buffer, pH 7.4

T1 sequence (P07342 58-687): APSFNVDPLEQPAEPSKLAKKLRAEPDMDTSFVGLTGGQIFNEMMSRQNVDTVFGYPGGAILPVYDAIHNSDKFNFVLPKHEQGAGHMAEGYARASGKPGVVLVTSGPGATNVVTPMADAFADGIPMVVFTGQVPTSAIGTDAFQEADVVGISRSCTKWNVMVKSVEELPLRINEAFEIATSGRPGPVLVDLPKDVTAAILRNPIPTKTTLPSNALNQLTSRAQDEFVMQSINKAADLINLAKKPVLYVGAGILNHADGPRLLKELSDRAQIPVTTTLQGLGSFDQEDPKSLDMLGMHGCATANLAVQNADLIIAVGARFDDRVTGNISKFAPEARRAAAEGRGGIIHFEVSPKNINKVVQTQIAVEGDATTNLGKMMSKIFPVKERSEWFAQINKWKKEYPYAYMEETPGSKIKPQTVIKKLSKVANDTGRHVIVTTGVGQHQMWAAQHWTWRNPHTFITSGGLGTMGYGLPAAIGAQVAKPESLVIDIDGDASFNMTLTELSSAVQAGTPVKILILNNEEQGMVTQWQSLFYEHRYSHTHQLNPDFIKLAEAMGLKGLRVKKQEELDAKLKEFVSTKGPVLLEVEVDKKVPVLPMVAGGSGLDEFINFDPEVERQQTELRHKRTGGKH
T2 sequence (P07342 58-687 P192S): as the sequence (P07342 58-687) above, with P135S counted along it
T3 sequence (P07342 58-687): as the sequence (P07342 58-687) above
C. albicans ALS, sequence (A0A1D8PJF9 entry or part of it): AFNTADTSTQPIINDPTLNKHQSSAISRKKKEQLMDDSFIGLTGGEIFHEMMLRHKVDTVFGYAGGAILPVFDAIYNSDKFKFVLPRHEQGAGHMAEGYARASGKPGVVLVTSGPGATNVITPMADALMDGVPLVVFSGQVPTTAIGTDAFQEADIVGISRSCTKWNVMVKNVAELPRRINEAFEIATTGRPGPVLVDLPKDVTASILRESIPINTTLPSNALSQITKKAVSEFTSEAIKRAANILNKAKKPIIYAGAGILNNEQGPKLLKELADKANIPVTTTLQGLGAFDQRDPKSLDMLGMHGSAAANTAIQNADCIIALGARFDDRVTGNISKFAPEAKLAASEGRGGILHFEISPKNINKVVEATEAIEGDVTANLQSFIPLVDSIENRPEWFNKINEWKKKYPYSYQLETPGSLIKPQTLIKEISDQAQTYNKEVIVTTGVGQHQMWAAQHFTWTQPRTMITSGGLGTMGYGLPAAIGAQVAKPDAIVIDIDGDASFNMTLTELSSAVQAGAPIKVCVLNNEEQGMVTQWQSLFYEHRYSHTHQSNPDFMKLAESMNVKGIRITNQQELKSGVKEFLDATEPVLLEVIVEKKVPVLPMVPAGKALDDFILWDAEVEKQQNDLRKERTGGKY

Compound: CCCC1C(C)=CC2CC=CC3(C)C2C1C(=O)C31C(=O)NC(CCCO)C1=O (stereo not drawn) [compound 1]
- potency against ScALS compared with diastereomer 13 ([1]; Figure S6): significantly more potent
- IC50 ([1]; recombinant ScALS, read-out: S. cerevisiae ALS IC50 Wild type): 15 ± 1 nM
- IC50 (S. cerevisiae ALS P192S): 66 ± 9 nM
- shift in potency, P192S mutant ScALS compared to wild-type ScALS (S. cerevisiae ALS P192S): 4 fold
- IC50 (C. albicans ALS): 60 ± 10 nM
- half-life (Plasma stability, mouse): 1.47 h
- half-life (Plasma stability, human): 1.32 h
- half-life [2]: 3 min
- half-life [3]: 3 min
- FAD reoxidation upon treatment (S. cerevisiae ALS): no indication of FAD reoxidation
- covalent modification of AfALS (intact mass shift) (AfALS): mass shifts consistent with covalent addition
- half-life (physchem): 2.35 h
